Measurements from ChEMBL document CHEMBL4665642, “Anticancer profile of newly synthesized BRAF inhibitors possess 5-(pyrimidin-4-yl)imidazo[2,1-b]thiazole scaffold” (Bioorg Med Chem, 2019).

Legend:
Format in all cases: functional
Conditions in all cases: read-out: Activity
[1] = test system: COLO 205; assay: Cytotoxicity against human COLO 205 cells assessed as cell viability at 10 uM incubated for 48 hrs by sulforhodamine B assay relative to control
[2] = test system: MOLT-4; assay: Cytotoxicity against human MOLT-4 cells assessed as cell viability at 10 uM incubated for 48 hrs by sulforhodamine B assay relative to control
[3] = test system: M14; assay: Cytotoxicity against human M14 cells assessed as cell viability at 10 uM incubated for 48 hrs by sulforhodamine B assay relative to control
[4] = test system: MDA-MB-435; assay: Cytotoxicity against human MDA-MB-435 cells assessed as cell viability at 10 uM incubated for 48 hrs by sulforhodamine B assay relative to control
[5] = test system: UACC-62; assay: Cytotoxicity against human UACC-62 cells assessed as cell viability at 10 uM incubated for 48 hrs by sulforhodamine B assay relative to control
[6] = test system: EKVX; assay: Cytotoxicity against human EKVX cells assessed as cell viability at 10 uM incubated for 48 hrs by sulforhodamine B assay relative to control
[7] = test system: U-251; assay: Cytotoxicity against human U-251 cells assessed as cell viability at 10 uM incubated for 48 hrs by sulforhodamine B assay relative to control
[8] = test system: PC-3; assay: Cytotoxicity against human PC-3 cells assessed as cell viability at 10 uM incubated for 48 hrs by sulforhodamine B assay relative to control
[9] = test system: HOP-92; assay: Cytotoxicity against human HOP-92 cells assessed as cell viability at 10 uM incubated for 48 hrs by sulforhodamine B assay relative to control
[10] = test system: HOP-62; assay: Cytotoxicity against human HOP-62 cells assessed as cell viability at 10 uM incubated for 48 hrs by sulforhodamine B assay relative to control
[11] = test system: Hs-578T; assay: Cytotoxicity against human HS-578T cells assessed as cell viability at 10 uM incubated for 48 hrs by sulforhodamine B assay relative to control
[12] = test system: SW-620; assay: Cytotoxicity against human SW-620 cells assessed as cell viability at 10 uM incubated for 48 hrs by sulforhodamine B assay relative to control
[13] = test system: OVCAR-8; assay: Cytotoxicity against human OVCAR-8 cells assessed as cell viability at 10 uM incubated for 48 hrs by sulforhodamine B assay relative to control
[14] = test system: K562; assay: Cytotoxicity against human K562 cells assessed as cell viability at 10 uM incubated for 48 hrs by sulforhodamine B assay relative to control
[15] = test system: SNB-19; assay: Cytotoxicity against human SNB-19 cells assessed as cell viability at 10 uM incubated for 48 hrs by sulforhodamine B assay relative to control
[16] = test system: HL-60(TB); assay: Cytotoxicity against human HL-60(TB) cells assessed as cell viability at 10 uM incubated for 48 hrs by sulforhodamine B assay relative to control
[17] = test system: OVCAR-3; assay: Cytotoxicity against human OVCAR-3 cells assessed as cell viability at 10 uM incubated for 48 hrs by sulforhodamine B assay relative to control
[18] = test system: NCI-H226; assay: Cytotoxicity against human NCI-H226 cells assessed as cell viability at 10 uM incubated for 48 hrs by sulforhodamine B assay relative to control
[19] = test system: IGROV-1; assay: Cytotoxicity against human IGROV-1 cells assessed as cell viability at 10 uM incubated for 48 hrs by sulforhodamine B assay relative to control
[20] = test system: SN12C; assay: Cytotoxicity against human SN12C cells assessed as cell viability at 10 uM incubated for 48 hrs by sulforhodamine B assay relative to control
[21] = test system: BT-549; assay: Cytotoxicity against human BT-549 cells assessed as cell viability at 10 uM incubated for 48 hrs by sulforhodamine B assay relative to control
[22] = test system: OVCAR-4; assay: Cytotoxicity against human OVCAR-4 cells assessed as cell viability at 10 uM incubated for 48 hrs by sulforhodamine B assay relative to control
[23] = test system: NCI-H522; assay: Cytotoxicity against human NCI-H522 cells assessed as cell viability at 10 uM incubated for 48 hrs by sulforhodamine B assay relative to control
[24] = test system: ACHN; assay: Cytotoxicity against human ACHN cells assessed as cell viability at 10 uM incubated for 48 hrs by sulforhodamine B assay relative to control
[25] = test system: MDA-MB-468; assay: Cytotoxicity against human MDA-MB-468 cells assessed as cell viability at 10 uM incubated for 48 hrs by sulforhodamine B assay relative to control
[26] = test system: RPMI-8226; assay: Cytotoxicity against human RPMI-8226 cells assessed as cell viability at 10 uM incubated for 48 hrs by sulforhodamine B assay relative to control
[27] = test system: OVCAR-5; assay: Cytotoxicity against human OVCAR-5 cells assessed as cell viability at 10 uM incubated for 48 hrs by sulforhodamine B assay relative to control
[28] = test system: SR; assay: Cytotoxicity against human SR cells assessed as cell viability at 10 uM incubated for 48 hrs by sulforhodamine B assay relative to control
[29] = test system: DU-145; assay: Cytotoxicity against human DU-145 cells assessed as cell viability at 10 uM incubated for 48 hrs by sulforhodamine B assay relative to control
[30] = test system: NCI-H23; assay: Cytotoxicity against human NCI-H23 cells assessed as cell viability at 10 uM incubated for 48 hrs by sulforhodamine B assay relative to control
[31] = test system: A549; assay: Cytotoxicity against human A549 cells assessed as cell viability at 10 uM incubated for 48 hrs by sulforhodamine B assay relative to control
[32] = test system: KM12; assay: Cytotoxicity against human KM12 cells assessed as cell viability at 10 uM incubated for 48 hrs by sulforhodamine B assay relative to control
[33] = test system: TK-10; assay: Cytotoxicity against human TK-10 cells assessed as cell viability at 10 uM incubated for 48 hrs by sulforhodamine B assay relative to control
[34] = test system: 786-0; assay: Cytotoxicity against human 786-0 cells assessed as cell viability at 10 uM incubated for 48 hrs by sulforhodamine B assay relative to control
[35] = test system: SF-268; assay: Cytotoxicity against human SF-268 cells assessed as cell viability at 10 uM incubated for 48 hrs by sulforhodamine B assay relative to control
[36] = test system: NCI/ADR-RES; assay: Cytotoxicity against human NCI/ADR-RES cells assessed as cell viability at 10 uM incubated for 48 hrs by sulforhodamine B assay relative to control
[37] = test system: CCRF-CEM; assay: Cytotoxicity against human CCRF-CEM cells assessed as cell viability at 10 uM incubated for 48 hrs by sulforhodamine B assay relative to control
[38] = test system: SK-MEL-28; assay: Cytotoxicity against human SK-MEL-28 cells assessed as cell viability at 10 uM incubated for 48 hrs by sulforhodamine B assay relative to control
[39] = test system: NCI-H460; assay: Cytotoxicity against human NCI-H460 cells assessed as cell viability at 10 uM incubated for 48 hrs by sulforhodamine B assay relative to control
[40] = test system: MDA-MB-231; assay: Cytotoxicity against human MDA-MB-231 cells assessed as cell viability at 10 uM incubated for 48 hrs by sulforhodamine B assay relative to control
[41] = test system: SNB-75; assay: Cytotoxicity against human SNB-75 cells assessed as cell viability at 10 uM incubated for 48 hrs by sulforhodamine B assay relative to control

O=S(=O)(NCCNc1nccc(-c2c(-c3cccc(F)c3)nc3sccn23)n1)c1ccc(Cl)cc1
viability at 10 µM [1]: 40% | viability at 10 µM [2]: 46.8% | viability at 10 µM [3]: 56.6% | viability at 10 µM [4]: 26.3% | viability at 10 µM [5]: 44.3% | viability at 10 µM [6]: 66.3% | viability at 10 µM [7]: 55.2% | viability at 10 µM [8]: 56.9% | viability at 10 µM [9]: 76.6% | viability at 10 µM [10]: 82.6% | viability at 10 µM [11]: 72.5% | viability at 10 µM [12]: 59.6% | viability at 10 µM [13]: 53.6% | viability at 10 µM [14]: 41.3% | viability at 10 µM [15]: 66.5% | viability at 10 µM [16]: 96% | viability at 10 µM [17]: 65.4% | viability at 10 µM [18]: 49.3% | viability at 10 µM [19]: 15.8% | viability at 10 µM [20]: 48.7% | viability at 10 µM [21]: 71.3% | viability at 10 µM [22]: 63.6% | viability at 10 µM [23]: 68.2% | viability at 10 µM [24]: 35.7% | viability at 10 µM [25]: 64.5% | viability at 10 µM [26]: 59.5% | viability at 10 µM [27]: 93.3% | viability at 10 µM [28]: 40.6% | viability at 10 µM [29]: 54.2% | viability at 10 µM [30]: 74.9% | viability at 10 µM [31]: 32.1% | viability at 10 µM [32]: 47.7% | viability at 10 µM [33]: 88.5% | viability at 10 µM [34]: 51.3% | viability at 10 µM [35]: 52.9% | viability at 10 µM [36]: 67.7% | viability at 10 µM [37]: 50.5% | viability at 10 µM [38]: 74.7% | viability at 10 µM [39]: 30.1% | viability at 10 µM [40]: 91.1% | viability at 10 µM [41]: 78.9%

O=S(=O)(NCCNc1nccc(-c2c(-c3cccc(F)c3)nc3sccn23)n1)c1cccc(F)c1
viability at 10 µM [1]: 45.1% | viability at 10 µM [2]: 57.8% | viability at 10 µM [3]: 69.4% | viability at 10 µM [4]: 41.9% | viability at 10 µM [5]: 56.2% | viability at 10 µM [6]: 72.1% | viability at 10 µM [7]: 60.7% | viability at 10 µM [8]: 67.2% | viability at 10 µM [9]: 88.2% | viability at 10 µM [10]: 83.5% | viability at 10 µM [11]: 78.3% | viability at 10 µM [12]: 75.8% | viability at 10 µM [13]: 60.1% | viability at 10 µM [14]: 48.6% | viability at 10 µM [15]: 73% | viability at 10 µM [16]: 101% | viability at 10 µM [17]: 76.7% | viability at 10 µM [18]: 62.5% | viability at 10 µM [19]: 24.6% | viability at 10 µM [20]: 55.3% | viability at 10 µM [21]: 81.5% | viability at 10 µM [22]: 64.8% | viability at 10 µM [23]: 75.8% | viability at 10 µM [24]: 39.9% | viability at 10 µM [25]: 68.6% | viability at 10 µM [26]: 66.8% | viability at 10 µM [27]: 100% | viability at 10 µM [28]: 45.5% | viability at 10 µM [29]: 65.1% | viability at 10 µM [30]: 83.4% | viability at 10 µM [31]: 42.1% | viability at 10 µM [32]: 44.2% | viability at 10 µM [33]: 88% | viability at 10 µM [34]: 63.9% | viability at 10 µM [35]: 68.6% | viability at 10 µM [36]: 80.3% | viability at 10 µM [37]: 63.3% | viability at 10 µM [38]: 94.7% | viability at 10 µM [39]: 43% | viability at 10 µM [40]: 79% | viability at 10 µM [41]: 80%
